Results reported in patent US7517874B2 (priority 2007, dated 2009).
pEC50: −log10 of the molar value. Where two headings read alike, the source gives them in different places.

Key:
[1] = target: human CB1 receptor (hCB1) (Homo sapiens, UniProt P21554); test: cell-based; type: cell-based; settings: for EC50: groups >100 nM-10 μM and >10 μM, cAMP, CHO-K1 hCB1, read-out: EC50 HCB1
Summary of the method: (§1)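 Agonism or inverse agonism was assessed as change in intracellular cAMP in CHO-K1 cells expressing human CB1 or rat CB2 (genomic DNA, pcDNA3.1).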

rat CB2 receptor (rCB2) = target: T1, rat CB2 receptor (rCB2) (Rattus norvegicus, UniProt Q9QZN9); test: cell-based; type: cell-based; settings: for +/− RCB2: agonist or inverse agonist at rCB2; for EC50: groups >100 nM-10 μM and >10 μM, cAMP, CHO-K1 rCB2, read-out: EC50 RCB2
T1 sequence (Q9QZN9 1-360): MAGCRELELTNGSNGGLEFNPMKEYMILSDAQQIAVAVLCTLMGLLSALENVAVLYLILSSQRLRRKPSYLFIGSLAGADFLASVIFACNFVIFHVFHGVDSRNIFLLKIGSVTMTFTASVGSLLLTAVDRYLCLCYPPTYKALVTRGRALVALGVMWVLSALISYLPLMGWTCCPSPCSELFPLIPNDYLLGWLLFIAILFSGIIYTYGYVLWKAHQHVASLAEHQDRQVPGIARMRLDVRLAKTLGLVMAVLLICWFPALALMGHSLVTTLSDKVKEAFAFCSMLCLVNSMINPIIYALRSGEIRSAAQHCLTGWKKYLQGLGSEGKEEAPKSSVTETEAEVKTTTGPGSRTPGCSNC
Summary of the method: as §1

Chain of human CB1 receptor (hCB1) (P21554 whole entry): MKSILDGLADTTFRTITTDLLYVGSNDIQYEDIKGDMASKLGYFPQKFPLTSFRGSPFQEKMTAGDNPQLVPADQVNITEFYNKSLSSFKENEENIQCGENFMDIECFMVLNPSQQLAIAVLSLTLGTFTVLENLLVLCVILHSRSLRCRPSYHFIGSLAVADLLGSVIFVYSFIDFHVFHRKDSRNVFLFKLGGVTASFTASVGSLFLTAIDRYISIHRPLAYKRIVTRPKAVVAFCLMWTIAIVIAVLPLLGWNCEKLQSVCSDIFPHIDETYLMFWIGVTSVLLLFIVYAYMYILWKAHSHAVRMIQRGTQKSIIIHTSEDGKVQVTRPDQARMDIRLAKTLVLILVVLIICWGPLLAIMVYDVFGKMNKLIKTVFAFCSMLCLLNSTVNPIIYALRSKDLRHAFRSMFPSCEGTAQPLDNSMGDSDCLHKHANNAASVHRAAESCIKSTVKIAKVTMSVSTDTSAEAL

| Compound | pEC50 [1] | pEC50 (rat CB2 receptor (rCB2)) | +/− RCB2 (rat CB2 receptor (rCB2)) | further results |
| --- | --- | --- | --- | --- |
| CN1CCn2c(-c3ccc(Cl)cc3F)nc(C(=O)N3CCC(N4C(=O)Cc5ccccc54)CC3)c2C1 [Compound 222, 1-(1-(3-(4-chloro-2-fluorophenyl)-7-methyl-5,6,7,8-tetrahydroimidazo[1,5-a]pyrazine-1-carbonyl)piperidin-4-yl)indolin-2-one] | < 5.00 | < 5.00 |  |  |
| Cc1nnc(C)n1C1CCN(C(=O)c2nc(-c3ccc(Cl)cc3F)n3c2CN(C)CC3)CC1 [Compound 223, (3-(4-chloro-2-fluorophenyl)-7-methyl-5,6,7,8-tetrahydroimidazo[1,5-a]pyrazin-1-yl)(4-(3,5-dimethyl-4H-1,2,4-triazol-4-yl)piperidin-1-yl)methanone] | < 5.00 | < 5.00 |  |  |
| COC(=O)c1cccc(CNC(=O)c2nc(-c3ccc(Cl)cc3F)n3c2CN(C)CC3)c1 [Compound 224, methyl 3-((3-(4-chloro-2-fluorophenyl)-7-methyl-5,6,7,8-tetrahydroimidazo[1,5-a]pyrazine-1-carboxamido)methyl)benzoate] |  |  | − | EC50 [1]: > 10000 nM |
| CN1CCn2c(-c3ccc(Cl)cc3F)nc(C(=O)N3CCC(C(N)=O)(N4CCOCC4)CC3)c2C1 [Compound 225] | < 5.00 | < 5.00 |  |  |
| CN1CCn2c(-c3ccc(Cl)cc3F)nc(C(=O)N3CCC(C(=O)N4CCOCC4)CC3)c2C1 [Compound 226, (3-(4-chloro-2-fluorophenyl)-7-methyl-5,6,7,8-tetrahydroimidazo[1,5-a]pyrazin-1-yl)(4-(morpholine-4-carbonyl)piperidin-1-yl)methanone] | < 5.00 | < 5.00 |  |  |
| CN1CCn2c(-c3ccc(Cl)cc3F)nc(C(=O)N3CCC(n4cc(-c5ccccc5)[nH]c4=O)CC3)c2C1 [Compound 227, 1-(1-(3-(4-chloro-2-fluorophenyl)-7-methyl-5,6,7,8-tetrahydroimidazo[1,5-a]pyrazine-1-carbonyl)piperidin-4-yl)-4-phenyl-1H-imidazol-2(3H)-one] |  |  | − | EC50 [1]: > 10000 nM |
| CN1CCn2c(-c3ccc(Cl)cc3F)nc(C(=O)NCc3ccc4[nH]c(=O)[nH]c4c3)c2C1 [Compound 228, 3-(4-chloro-2-fluorophenyl)-7-methyl-N-((2-oxo-2,3-dihydro-1H-benzo[d]imidazol-5-yl)methyl)-5,6,7,8-tetrahydroimidazo[1,5-a]pyrazine-1-carboxamide] |  |  | − | EC50 [1]: > 10000 nM |
| CN1CCn2c(-c3ccccc3)nc(C(=O)NCCCO)c2C1 [Compound 229, N-(3-hydroxypropyl)-7-methyl-3-phenyl-5,6,7,8-tetrahydroimidazo[1,5-a]pyrazine-1-carboxamide] | < 5.00 | < 5.00 |  |  |
| CN1CCn2c(-c3ccccc3)nc(C(=O)NC(C)(C)CO)c2C1 [Compound 230, N-(1-hydroxy-2-methylpropan-2-yl)-7-methyl-3-phenyl-5,6,7,8-tetrahydroimidazo[1,5-a]pyrazine-1-carboxamide] |  |  |  | EC50 [1]: > 10000 nM; EC50 (rat CB2 receptor (rCB2)): > 10000 nM |
| CC(CO)NC(=O)c1nc(-c2ccccc2)n2c1CN(C)CC2 (stereo not drawn) [Compound 231, N-(1-hydroxypropan-2-yl)-7-methyl-3-phenyl-5,6,7,8-tetrahydroimidazo[1,5-a]pyrazine-1-carboxamide] |  |  |  | EC50 [1]: > 10000 nM; EC50 (rat CB2 receptor (rCB2)): > 10000 nM |
| CCC(CO)NC(=O)c1nc(-c2ccccc2)n2c1CN(C)CC2 (stereo not drawn) [Compound 232, N-(1-hydroxybutan-2-yl)-7-methyl-3-phenyl-5,6,7,8-tetrahydroimidazo[1,5-a]pyrazine-1-carboxamide] | < 5.00 | < 5.00 |  |  |
| CCCC(CO)NC(=O)c1nc(-c2ccccc2)n2c1CN(C)CC2 (stereo not drawn) [Compound 233, N-(1-hydroxypentan-2-yl)-7-methyl-3-phenyl-5,6,7,8-tetrahydroimidazo[1,5-a]pyrazine-1-carboxamide] | < 5.00 | < 5.00 |  |  |
| CN1CCn2c(-c3ccccc3)nc(C(=O)NCC3OCCO3)c2C1 [Compound 234, N-((1,3-dioxolan-2-yl)methyl)-7-methyl-3-phenyl-5,6,7,8-tetrahydroimidazo[1,5-a]pyrazine-1-carboxamide] | < 5.00 |  | + |  |
| CN1CCn2c(-c3ccccc3)nc(C(=O)NC3(CO)CCCC3)c2C1 [Compound 235, N-(1-(hydroxymethyl)cyclopentyl)-7-methyl-3-phenyl-5,6,7,8-tetrahydroimidazo[1,5-a]pyrazine-1-carboxamide] | < 5.00 | < 5.00 |  |  |
| CN1CCn2c(-c3ccccc3)nc(C(=O)NCC3CCOCC3)c2C1 [Compound 236, 7-methyl-3-phenyl-N-((tetrahydro-2H-pyran-4-yl)methyl)-5,6,7,8-tetrahydroimidazo[1,5-a]pyrazine-1-carboxamide] | < 5.00 | < 5.00 |  |  |
| Cc1cnc(CNC(=O)c2nc(-c3ccccc3)n3c2CN(C)CC3)cn1 [Compound 237, 7-methyl-N-((5-methylpyrazin-2-yl)methyl)-3-phenyl-5,6,7,8-tetrahydroimidazo[1,5-a]pyrazine-1-carboxamide] | < 5.00 | < 5.00 |  |  |
| CNC(=O)[C@@H](NC(=O)c1nc(C2=CCCC2)n2c1CN(C)CC2)C(C)(C)C [Compound 238, (S)-3-cyclopentenyl-N-(3,3-dimethyl-1-(methylamino)-1-oxobutan-2-yl)-7-methyl-5,6,7,8-tetrahydroimidazo[1,5-a]pyrazine-1-carboxamide] |  | < 5.00 |  | +/− HCB1 ([1]; agonist or inverse agonist at hCB1): + |
| CNC(=O)[C@@H](NC(=O)c1nc(-c2cncnc2)n2c1CN(C)CC2)C(C)(C)C [Compound 239, (S)-N-(3,3-dimethyl-1-(methylamino)-1-oxobutan-2-yl)-7-methyl-3-(pyrimidin-5-yl)-5,6,7,8-tetrahydroimidazo[1,5-a]pyrazine-1-carboxamide] |  |  |  | EC50 [1]: > 10000 nM; EC50 (rat CB2 receptor (rCB2)): > 10000 nM |
| CNC(=O)[C@@H](NC(=O)c1nc(-c2ccc(C)c(F)c2)n2c1CN(C)CC2)C(C)(C)C [Compound 240, (S)-N-(3,3-dimethyl-1-(methylamino)-1-oxobutan-2-yl)-3-(3-fluoro-4-methylphenyl)-7-methyl-5,6,7,8-tetrahydroimidazo[1,5-a]pyrazine-1-carboxamide] | < 5.00 |  | − |  |
| CNC(=O)[C@@H](NC(=O)c1nc(-c2ccc(Cl)cc2F)n2c1CN(C)CC2)C(C)(C)C [Compound 241, (S)-3-(4-chloro-2-fluorophenyl)-N-(3,3-dimethyl-1-(methylamino)-1-oxobutan-2-yl)-7-methyl-5,6,7,8-tetrahydroimidazo[1,5-a]pyrazine-1-carboxamide] | < 5.00 |  | − |  |
| CNC(=O)[C@@H](NC(=O)c1nc(-c2cccc3cccnc23)n2c1CN(C)CC2)C(C)(C)C [Compound 242, (S)-N-(3,3-dimethyl-1-(methylamino)-1-oxobutan-2-yl)-7-methyl-3-(quinolin-8-yl)-5,6,7,8-tetrahydroimidazo[1,5-a]pyrazine-1-carboxamide] | < 5.00 |  | − |  |
| C/C=C/c1nc(C(=O)N[C@H](C(=O)NC)C(C)(C)C)c2n1CCN(C)C2 [Compound 243, (S,E)-N-(3,3-dimethyl-1-(methylamino)-1-oxobutan-2-yl)-7-methyl-3-(prop-1-enyl)-5,6,7,8-tetrahydroimidazo[1,5-a]pyrazine-1-carboxamide] | < 5.00 |  | + |  |
| CNC(=O)[C@@H](NC(=O)c1nc(-c2cccc(F)c2)n2c1CN(C)CC2)C(C)(C)C [Compound 244, (S)-N-(3,3-dimethyl-1-(methylamino)-1-oxobutan-2-yl)-3-(3-fluorophenyl)-7-methyl-5,6,7,8-tetrahydroimidazo[1,5-a]pyrazine-1-carboxamide] | < 5.00 |  | + |  |
| CNC(=O)[C@@H](NC(=O)c1nc(-c2cc(C(F)(F)F)ccc2F)n2c1CN(C)CC2)C(C)(C)C [Compound 245, (S)-N-(3,3-dimethyl-1-(methylamino)-1-oxobutan-2-yl)-3-(2-fluoro-5-(trifluoromethyl)phenyl)-7-methyl-5,6,7,8-tetrahydroimidazo[1,5-a]pyrazine-1-carboxamide] | < 5.00 |  | − |  |
| CNC(=O)[C@@H](NC(=O)c1nc(-c2cc(Cl)ccc2F)n2c1CN(C)CC2)C(C)(C)C [Compound 246, (S)-3-(5-chloro-2-fluorophenyl)-N-(3,3-dimethyl-1-(methylamino)-1-oxobutan-2-yl)-7-methyl-5,6,7,8-tetrahydroimidazo[1,5-a]pyrazine-1-carboxamide] | < 5.00 |  | − |  |
| CNC(=O)[C@@H](NC(=O)c1nc(-c2ccc(F)cc2)n2c1CN(C)CC2)C(C)(C)C [Compound 247, (S)-N-(3,3-dimethyl-1-(methylamino)-1-oxobutan-2-yl)-3-(4-fluorophenyl)-7-methyl-5,6,7,8-tetrahydroimidazo[1,5-a]pyrazine-1-carboxamide] | < 5.00 |  | + |  |
| CNC(=O)[C@@H](NC(=O)c1nc(-c2ccc(F)cc2F)n2c1CN(C)CC2)C(C)(C)C [Compound 248, (S)-3-(2,4-difluorophenyl)-N-(3,3-dimethyl-1-(methylamino)-1-oxobutan-2-yl)-7-methyl-5,6,7,8-tetrahydroimidazo[1,5-a]pyrazine-1-carboxamide] | < 5.00 | < 5.00 |  |  |
